# Laboratory results from ChEMBL document CHEMBL5120882, “Medicinal Chemistry Perspective on Targeting Mono-ADP-Ribosylating PARPs with Small Molecules” (J Med Chem, 2022).
# Columns and labels:
# [1] = target: T1, Protein mono-ADP-ribosyltransferase PARP16 (Homo sapiens, UniProt Q8N5Y8); experiment: Inhibition of PARP16 (unknown origin) using IRE-1 as substrate incubated for 1 hr by chemiluminescence assay
# T1 sequence (Q8N5Y8 whole entry): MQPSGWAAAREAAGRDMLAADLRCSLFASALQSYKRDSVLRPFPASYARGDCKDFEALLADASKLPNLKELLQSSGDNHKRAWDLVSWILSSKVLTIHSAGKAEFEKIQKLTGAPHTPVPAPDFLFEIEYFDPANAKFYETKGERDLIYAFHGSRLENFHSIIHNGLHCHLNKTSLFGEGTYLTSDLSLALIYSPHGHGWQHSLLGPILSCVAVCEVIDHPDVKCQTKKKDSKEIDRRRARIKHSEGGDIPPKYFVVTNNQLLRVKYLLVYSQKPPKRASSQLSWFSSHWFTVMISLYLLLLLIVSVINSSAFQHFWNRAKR
# [2] = target: T2, Protein mono-ADP-ribosyltransferase PARP3 (Homo sapiens, UniProt Q9Y6F1); experiment: Inhibition of recombinant human PARP3 using IRE-1 as substrate incubated for 1 hr by chemiluminescence assay
# T2 sequence (Q9Y6F1 whole entry): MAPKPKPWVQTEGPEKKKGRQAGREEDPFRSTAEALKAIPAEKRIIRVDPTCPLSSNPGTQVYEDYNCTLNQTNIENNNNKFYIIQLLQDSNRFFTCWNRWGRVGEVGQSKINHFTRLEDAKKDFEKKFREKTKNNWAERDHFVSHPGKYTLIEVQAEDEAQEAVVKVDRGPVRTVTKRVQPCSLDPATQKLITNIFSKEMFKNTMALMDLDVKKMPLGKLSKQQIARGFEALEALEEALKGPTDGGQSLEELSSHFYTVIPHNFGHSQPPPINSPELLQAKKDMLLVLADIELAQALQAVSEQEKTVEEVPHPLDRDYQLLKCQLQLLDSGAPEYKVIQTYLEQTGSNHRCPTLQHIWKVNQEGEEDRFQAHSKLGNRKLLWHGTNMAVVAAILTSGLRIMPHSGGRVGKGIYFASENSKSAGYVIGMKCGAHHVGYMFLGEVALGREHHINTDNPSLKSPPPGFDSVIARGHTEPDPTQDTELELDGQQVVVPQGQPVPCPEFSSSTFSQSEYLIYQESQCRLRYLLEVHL
# [3] = target: Protein mono-ADP-ribosyltransferase PARP9 (Homo sapiens, UniProt Q8IXQ6); experiment: Inhibition of PARP9 (unknown origin)
# NCI-H1373 = experiment: Antitumor activity against human NCI-H1373 cells in xenograft model assessed as tumor growth inhibition relative to control; type: functional; set-up: scale not given: the % may be the effect or the level left
IC50 [1],IC50 [2],IC50 [3],Compound,Activity (NCI-H1373)
0.427 µM,3.4 µM,–,Nc1ncc2c(n1)CNC(=O)c1[nH]c(Br)c(Br)c1-2,–
–,–,> 50 µM,C[C@@H](COCCC(=O)N1CCN(c2ncc(C(F)(F)F)cn2)CC1)Nc1cn[nH]c(=O)c1C(F)(F)F [ATAMPARIB],49%
